Measurements taken from PubChem BioAssay AID1508591.

Details: rat; liver microsomes; pH 7.4; 15.0 min; 1.0 µM

| SMILES | half-life |
| --- | --- |
| CC[C@H](C)[C@@H]([C@@H](CC(=O)N1CCC[C@H]1[C@H](OC)[C@@H](C)C(=O)N[C@@H](Cc1ccccc1)c1nccs1)OC)N(C)C(=O)[C@@H](NC(=O)[C@H](C(C)C)N(C)C)C(C)C | > 30 min |
| CC/C=C\CC1C(=O)CCC1CC(=O)OC (stereo not given) | > 30 min |
| COc1ccc(Cn2c(=O)[nH]c3cc(C(=O)NCCCN4CCCCC4)ccc3c2=O)cc1 | > 30 min |
| NC(=O)C1CCN(c2nc(-c3cccc4ccccc34)cs2)CC1 | 4.72 min |
| COc1ccc2[nH]c(=O)c(-c3noc(-c4ccc(F)cc4)n3)cc2c1 | > 30 min |
| CCOc1ccc(CCNC(=O)c2cc3sccc3n2Cc2cccc(C)c2)cc1OCC | 1.8 min |
| O=C(c1cccs1)c1nonc1C(=O)c1cccs1 | 1.49 min |
| CCOC(=O)C1CCN(c2ncc(-c3ccc4c(c3)OCCCO4)s2)CC1 | 2.37 min |
| O=C(Nc1cccc(C(F)(F)F)c1)Nc1cc(S(=O)(=O)NC2CC2)ccc1-c1ccsc1 | 5.65 min |
| CC(C)(C)C(=O)N1CCN(c2nccc(Nc3ccccc3Cl)n2)CC1 | 4.07 min |
| Fc1cnc(-c2ccccc2C(F)F)nc1NCC1CCN(c2cnccn2)C1 (stereo not given) | 2.8 min |
| CCn1c(SCc2ccc(C#N)cc2)nnc1-c1cccc(Cl)c1 | 3 min |
| NC(=O)C1CCN(c2nc(-c3cc4ccccc4o3)cs2)CC1 | 4.21 min |
| CCCN1C(CC(C)C)=NS(=O)(=O)c2cc(NC(=O)c3cccs3)ccc21 | 4.56 min |
| c1ccc2c(Nc3ccon3)nc(-c3ccncc3)nc2c1 | 6.2 min |
| COc1ccc(CN(C2CCCCC2C)S(=O)(=O)c2ccc(S(=O)(=O)N(C)C)cc2)cc1OC (stereo not given) | 1.6 min |
| Fc1cccc(CNc2nc(-c3ccccc3C(F)(F)F)nc3ccccc23)c1 | 2.55 min |
| Cc1cc(C)nc(NC(=S)N2CCN(c3cc(C(F)(F)F)nc4ccc(C(F)(F)F)cc34)CC2)c1 | > 30 min |
| Nc1nc2c(s1)C(c1ccc(F)cc1F)CC(=O)N2 (stereo not given) | > 30 min |
| Nc1ccc(CNc2ccc([S+](=O)([O-])Nc3nccs3)cc2)c(O)c1 | > 30 min |
| Cc1cccc2c1NC(=O)/C2=C/c1cc(Cl)c(O)c(Cl)c1 | 26 min |

| SMILES | half-life |
| --- | --- |
| O=C(CCCN1CCC2(CC1)C(=O)N(Cc1cccc(F)c1)CN2c1ccccc1)c1ccc(F)cc1 | 1.65 min |
| CCOC(=O)c1ccc(-n2cnc3cc(C(=O)N4CCCCC4)ccc32)cc1 | 1.7 min |
| CCOC(=O)c1cc(C)sc1NC(=O)c1ccc(Cl)s1 | 5.49 min |
| FC(F)(F)c1ccccc1-c1nc(NCc2ccc(Cl)cc2)c2ccccc2n1 | > 30 min |
| CCN(CC)CCO[C@H]1CC[C@@]2(C)C(=CC[C@@H]3[C@@H]2CC[C@]2(C)C(=O)CC[C@@H]32)C1 | 5.67 min |
| COc1ccc(NC(=O)C23CC4CC(CC(C4)C2)C3)cc1[S+](=O)([O-])Nc1ccc(Br)cc1 | 5 min |
| COc1cc2c(c(OC)c1OC)-c1ccc(SC)c(=O)cc1C(N)CC2 (stereo not given) | 9.88 min |
| NC(=O)C1CCN(c2nc(-c3ccc(Cl)cc3)cs2)CC1 | 3.09 min |
| CNc1nc2c(s1)C(c1ccccc1F)CC(=O)N2 (stereo not given) | 3.51 min |
| O=C(Nc1ncc(Cc2ccccc2)s1)c1ccc(-c2cccc([N+](=O)[O-])c2)o1 | > 30 min |
| O=[S+]([O-])(Nc1ccccc1)c1ccc(NCc2ccc(Cl)cc2O)cc1 | 1.8 min |
| CCOc1ccc(CCNC(=O)c2cc3c(s2)CCC3)cc1OCC | 1.6 min |
| CCn1c(C(=O)NCCc2ccc(OC)cc2)cc2sccc21 | 1.9 min |
| CCC[C@@H]1CN(C(=O)c2ccc(-c3ccc(C)o3)cc2)C[C@H]1NC(C)=O | 13.2 min |
| O=C(c1cccc(F)c1)N1CCC2(CCN(Cc3cc(C(F)(F)F)cc(C(F)(F)F)c3)CC2)CC1 | > 30 min |
| C[C@H]1CN(C(=O)c2nn(C)c3ccccc23)C[C@@H]1c1nc(-c2ccncc2)no1 | 5.01 min |
| NC(=O)N1CCN(c2nc(-c3ccc(Br)cc3)cs2)CC1 | > 30 min |
| Fc1cc(Nc2nc(-c3ccncc3)nc3ccccc23)ccc1-c1ccncc1 | 13 min |
| COc1ccc(CN2C(=O)[C@@H]3C[C@@H](CN3Cc3cccs3)Oc3ccccc32)cc1 | 1.2 min |
| COc1cc2nccc(Oc3ccc(NC(=O)C4(C(=O)Nc5ccc(F)cc5)CC4)cc3)c2cc1OC | > 30 min |
| Fc1ccc(CNc2nc(-c3ccccc3C(F)(F)F)nc3ccccc23)cc1 | 19.8 min |

| SMILES | half-life |
| --- | --- |
| CCOC(=O)C1CCN(C(=O)C(C)(C)NC(=O)Nc2ccc(-c3ccccc3)cc2)CC1 | 1.4 min |
| NC(=O)C1CCN(c2nc(-c3ccccc3C(F)(F)F)cs2)CC1 | 5.58 min |
| NC(=O)C1CCN(c2nc(-c3ccc4c(c3)CCO4)cs2)CC1 | 5.55 min |
| NC(=O)C1CCN(c2ncc(-c3ccc(Cl)cc3)s2)CC1 | 5.97 min |
| Cc1ccc(CN2CCOC[C@H]2c2ncc(-c3cccc(F)c3)[nH]2)cc1 | 2.16 min |
| O=C(O)c1cn(C2CC2)c2cc(N3C[C@@H]4C[C@H]3CN4)c(F)cc2c1=O | > 30 min |
| Cc1cc(-c2nnc3n2CCCCC3)c(C)n1-c1ccc(C(F)(F)F)cc1 | 2.1 min |
| CCc1ccc(C(=O)Nc2cc(CN3CCN(C)CC3)cc(C(F)(F)F)c2)cc1C#Cc1cnc2ccnn2c1 | > 30 min |
| C[C@@H]1[C@@H](CC(C[C@H]2O[C@@H]3O[C@]4(C)CC[C@@H]5[C@H](C)CC[C@@H]([C@H]2C)[C@@]35OO4)C(=O)NCc2ccc(F)cc2)O[C@@H]2O[C@]3(C)CC[C@H]4[C@H](C)CC[C@@H]1[C@@]24OO3 (stereo not given in full) | 2.4 min |
| CS(=O)(=O)c1ccccc1-c1csc(N2CCC(C(N)=O)CC2)n1 | > 30 min |
| COc1cc(C(=S)N2CCN(CCO)CC2)ccc1OCc1ccc(C)cc1 | 3.2 min |
| CCCCCn1c(=O)[nH]c2cc(C(=O)NCCCN3CCC(C)CC3)ccc2c1=O | 16 min |
| COc1cccc(CNc2ccc(S(=O)(=O)Nc3ccc(N4CCNCC4)cc3)cc2)c1O | > 30 min |
| COC(=O)[C@]12CCC(C)(C)C[C@@H]1[C@@H]1C(=O)C=C3[C@@]4(C)C=C(C#N)C(=O)C(C)(C)[C@@H]4CC[C@@]3(C)[C@]1(C)CC2 | 5.97 min |
| NC(=O)C1CCN(c2nc(-c3ccccc3-c3ccccc3)cs2)CC1 | 2.45 min |
| COc1cccc(C(=O)Nc2nnc(S(=O)(=O)N3CCOCC3)s2)c1 | > 30 min |
| CC(C)(C)CC(C)(C)c1ccc(O)cc1 | 5.8 min |
| Cc1ccc(S(=O)(=O)Nc2cnccc2C(=O)Nc2nc(C3CCC3)cs2)cc1 | 5 min |
| CCOc1ccc(CCNC(=O)c2cc3sccc3n2Cc2ccc(F)cc2F)cc1OCC | 1.8 min |

The remaining lines, values ahead:

| half-life | SMILES |
| --- | --- |
| 5.78 min | CCCCNc1oc(-c2cccc3ccccc23)nc1C#N |
| > 30 min | Cc1cc(C)c2nc(-c3ccccn3)cc(C(=O)Nc3ccc(S(=O)(=O)Nc4onc(C)c4C)cc3)c2c1 |
| > 30 min | Cc1ccccc1C(=O)N1CCc2cc(-c3nc(NC(=O)Cc4ccc5ccccc5c4)sc3C)ccc21 |
| 16 min | COc1cccc(CNc2ccc(S(=O)(=O)Nc3ccc(C)nc3)cc2)c1O |
| 9.6 min | Cc1ccc(S(=O)(=O)Nc2cc(Br)ccc2C(=O)Nc2nc(-c3ccccc3)cs2)cc1 |
| > 30 min | CC(C)(C)n1nc(-c2ccc(Cl)cc2)c2c(N)ncnc21 |
| 1.8 min | Cc1ccc(OCCn2c(CCNC(=O)c3ccc(Cl)cc3)nc3ccccc32)cc1 |
| 4.3 min | COc1ccc(NS(=O)(=O)c2ccc(C)c(C(=O)Nc3ccc4oc(C)nc4c3)c2)cc1 |
| > 30 min | COc1ccc(/C=C2/C(=O)Nc3ccccc32)cc1O |
| > 30 min | Cn1nnnc1Sc1ncnc2scc(-c3cccc(S(C)(=O)=O)c3)c12 |
| 10.9 min | CCc1ccc(-n2nnc(-c3nsc(NC(=O)c4ccccc4Cl)n3)c2C)cc1 |
| > 30 min | Fc1cc(-c2nc(Nc3ccc(F)c(F)c3)c3ccccc3n2)ccn1 |
| 15 min | Cc1ccc(NS(=O)(=O)c2ccccc2C(=O)Nc2nc(-c3ccccc3)cs2)cc1 |
| 2.4 min | O=S(=O)(Nc1cccc2cccnc12)c1ccc(NCc2ccc(Br)cc2O)cc1 |
| 10 min | COc1ccccc1-c1nc(NCc2cnc(C)cn2)c2ccccc2n1 |
| > 30 min | CN(C)c1cccc(-c2c3c(=O)n(-c4ccccc4Cl)[nH]c3cc(=O)n2C)c1 |
| 15 min | COc1cccc(CNc2ccc(S(=O)(=O)Nc3cccnc3)cc2)c1O |
| 2.24 min | COc1ccccc1-c1nnc2sc(-c3ccc(N(C)C)cc3)nn12 |
| 13 min | Fc1cc(Nc2nc(-c3ccncc3)nc3ccccc23)ccc1-n1cncn1 |
| > 30 min | C[S+](=O)([O-])c1ccc(-c2nc(C(=O)NCc3cccnc3)n3ccccc23)cc1 |

| half-life | SMILES |
| --- | --- |
| 6.1 min | CCN1C(=O)c2ccccc2S(=O)c2ccc(NC(=O)Cc3ccc(OC)cc3)cc21 (stereo not given) |
| 3.18 min | Cc1cccc(-c2cc(NC(=O)c3ccccc3C)n(-c3ccccc3)n2)c1 |
| 1.6 min | CC(C)(C)c1ccc(-c2ccc(=O)n(CC(=O)NCCc3ccccc3)n2)cc1 |
| 3.17 min | COc1cccc(C(=O)Nc2cccc(OCc3cc(=O)n4cccc(C)c4n3)c2)c1 |
| 22 min | Cc1cc(-c2nc(Nc3ccc(F)c(F)c3)c3ccccc3n2)ccn1 |
| 1.64 min | CCOc1ccccc1CNS(=O)(=O)c1ccc(-c2cnc(C3CC3)o2)cc1 |
| > 30 min | COc1ccc(NC(=O)c2[nH]c(C)c(C(C)=O)c2C)cc1S(=O)(=O)Nc1ccc(C#N)cc1 |
| > 30 min | Cc1ccccc1C(=O)N1CCc2cc(-c3nc(NC(=O)c4ccc5c(c4)OCO5)sc3C)ccc21 |
| > 30 min | O=C(Nc1ccc(S(=O)(=O)Nc2nccs2)cc1)c1cc(-c2ccccc2)nc2ccccc12 |
| 4.7 min | COc1ccc(-c2csc(NC(=O)c3ccncc3NS(=O)(=O)c3ccc(C)cc3)n2)cc1 |
| 6.3 min | Cc1ccc(S(=O)(=O)Nc2ccccc2C(=O)Nc2nc(-c3ccccc3)c(C)s2)cc1 |
| 7.34 min | CCN(CC)CCCC(C)Nc1cc(/C=C/c2ccccc2Cl)nc2cc(Cl)ccc12 (stereo not given) |
| 15 min | Cc1ccc(S(=O)(=O)Nc2cc(C(=O)Nc3nc(-c4ccccc4)cs3)ccc2Cl)cc1 |
| > 30 min | Cc1ccc(S(=O)(=O)Nc2ccncc2C(=O)Nc2nc(-c3ccccc3)cs2)cc1 |
| 3.9 min | O=C(Nc1nnc(-c2ccc(Cl)cc2)o1)c1ccc(Cl)c(Cl)c1 |
| 5.7 min | CNc1nc(-c2cccc3ccccc23)ccc1C#N |
| 4.77 min | COCCNS(=O)(=O)c1cc(-c2nn3c(C)nnc3c3ccccc23)ccc1C |
| 9.28 min | COc1ccc(-c2cc(-c3cccc4[nH]ncc34)cn3cncc23)cn1 |
| 3.84 min | CCC(C)N(C)C(=O)c1cc2ccccc2c(-c2ccccc2Cl)n1 (stereo not given) |
